Assay results from ChEMBL document CHEMBL3621142, “Discovery and Evaluation of Clinical Candidate AZD3759, a Potent, Oral Active, Central Nervous System-Penetrant, Epidermal Growth Factor Receptor Tyrosine Kinase Inhibitor” (J Med Chem, 2015).

Assays:
[1] = Fraction unbound in Han Wistar rat blood at 5 uM by equilibrium dialysis method; format: ADME, tissue-based; conditions: Han Wistar
[2] = Elimination half life in Han Wistar rat at 1 mg/kg, iv; format: ADME, organism-based; conditions: Han Wistar, in vivo, read-out: beta t1/2 (converted)
MDR1 (P-gp) = experiment: Efflux ratio of permeability from basolateral to apical side over apical to basolateral side in MDCK2-MDR1 cells; format: ADME, cell-based, Canis lupus familiaris; conditions: dog, MDCK-MDR1
[3] = Ratio of unbound AUC (0 to 7 hrs) in brain to blood of Han Wistar rat at 2 mg/kg, po by LC-MS/MS analysis; format: ADME, organism-based; conditions: Han Wistar, brain and blood, read-out: K(p,uu,brain)
[4] = Clearance in Han Wistar rat at 1 mg/kg, iv; format: ADME, organism-based; conditions: in vivo
[5] = Ratio of unbound AUC (0 to 7 hrs) in CSF to blood of Han Wistar rat at 2 mg/kg, po by LC-MS/MS analysis; format: ADME, organism-based; conditions: for Kp uu: Han Wistar, CSF and blood
[6] = target: Epidermal growth factor receptor (Homo sapiens, UniProt P00533, L858R); format: cell-based, H3255
Chain of Epidermal growth factor receptor (Homo sapiens, UniProt P00533, L858R) (P00533 25-1210 L858R limits assumed): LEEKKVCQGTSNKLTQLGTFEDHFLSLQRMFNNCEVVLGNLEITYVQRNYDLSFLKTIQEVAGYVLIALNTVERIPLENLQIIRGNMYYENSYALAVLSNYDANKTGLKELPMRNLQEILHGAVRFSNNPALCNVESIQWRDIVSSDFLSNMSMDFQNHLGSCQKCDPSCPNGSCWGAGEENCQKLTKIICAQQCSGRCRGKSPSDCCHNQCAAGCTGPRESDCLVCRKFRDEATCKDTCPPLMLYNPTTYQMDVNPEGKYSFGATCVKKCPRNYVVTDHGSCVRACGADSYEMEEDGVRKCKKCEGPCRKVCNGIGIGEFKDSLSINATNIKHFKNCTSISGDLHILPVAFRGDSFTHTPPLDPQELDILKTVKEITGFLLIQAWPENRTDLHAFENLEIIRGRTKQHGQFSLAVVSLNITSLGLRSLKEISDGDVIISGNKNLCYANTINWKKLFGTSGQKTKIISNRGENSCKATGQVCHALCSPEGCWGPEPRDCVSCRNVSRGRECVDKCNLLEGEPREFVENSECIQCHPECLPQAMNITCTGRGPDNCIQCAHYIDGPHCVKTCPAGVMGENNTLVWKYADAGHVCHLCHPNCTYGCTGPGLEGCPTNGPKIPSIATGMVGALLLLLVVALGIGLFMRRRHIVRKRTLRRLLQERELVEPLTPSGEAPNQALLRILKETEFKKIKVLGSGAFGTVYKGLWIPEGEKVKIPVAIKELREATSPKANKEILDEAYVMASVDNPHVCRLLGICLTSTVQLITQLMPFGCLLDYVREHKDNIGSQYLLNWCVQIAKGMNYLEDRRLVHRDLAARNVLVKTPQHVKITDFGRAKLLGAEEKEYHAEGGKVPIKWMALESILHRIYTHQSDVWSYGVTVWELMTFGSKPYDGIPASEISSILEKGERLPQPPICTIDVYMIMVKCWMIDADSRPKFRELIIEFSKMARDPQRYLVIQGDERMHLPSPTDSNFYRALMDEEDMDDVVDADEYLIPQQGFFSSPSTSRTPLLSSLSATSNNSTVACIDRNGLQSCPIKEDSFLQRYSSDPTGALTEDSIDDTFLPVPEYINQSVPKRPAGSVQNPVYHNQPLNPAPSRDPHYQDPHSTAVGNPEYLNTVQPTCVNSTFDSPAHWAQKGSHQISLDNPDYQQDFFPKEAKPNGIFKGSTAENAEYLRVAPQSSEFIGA

[7] = Fraction unbound in Han Wistar rat brain at 5 uM by equilibrium dialysis method; format: ADME, tissue-based; conditions: Han Wistar, brain
[8] = AUC(0 to 24 hrs) in Han Wistar rat at 2 mg/kg, po; format: ADME, organism-based; design: dose 2 mg/kg, time < 24 hr, route oral; conditions: Han Wistar, in vivo
[9] = Oral bioavailability in Han Wistar rat at 2 mg/kg; format: ADME, organism-based; conditions: Han Wistar, in vivo
[10] = Permeability from apical to basolateral side in MDCK2-MDR1 cells; format: ADME, cell-based, Canis lupus familiaris, MDCK-II; conditions: dog, MDCK-MDR1
[11] = AUC (0 to 7 hrs) in Han Wistar rat brain at 2 mg/kg, po by LC-MS/MS analysis; format: ADME, organism-based; design: dose 2 mg/kg, time < 7 hr, route oral; conditions: Han Wistar, brain
[12] = Volume of distribution at steady state in Han Wistar rat at 1 mg/kg, iv; format: ADME, organism-based; conditions: Han Wistar, in vivo, read-out: Vdss
[13] = (§1) AUC (0 to 7 hrs) in Han Wistar rat CSF at 2 mg/kg, po by LC-MS/MS analysis; format: ADME, organism-based, Cerebrospinal fluid; design: time < 7 hr, dose 2 mg/kg, route oral; conditions: Han Wistar, CSF
[14] = AUC (0 to 7 hrs) in Han Wistar rat blood at 2 mg/kg, po by LC-MS/MS analysis; format: ADME, organism-based; design: dose 2 mg/kg, time < 7 hr, route oral; conditions: Han Wistar, blood
[15] = Clearance in Han Wistar rat at 2 mg/kg, po; format: ADME, organism-based; conditions: in vivo
[16] = target: Epidermal growth factor receptor (Homo sapiens, UniProt P00533, EX19DEL); experiment: Inhibition of EGFR exon19 deletion mutant phosphorylation in human PC9 cells; format: cell-based, PC-9
Chain of Epidermal growth factor receptor (Homo sapiens, UniProt P00533, EX19DEL) (P00533 whole entry, looked up, stated change not applied): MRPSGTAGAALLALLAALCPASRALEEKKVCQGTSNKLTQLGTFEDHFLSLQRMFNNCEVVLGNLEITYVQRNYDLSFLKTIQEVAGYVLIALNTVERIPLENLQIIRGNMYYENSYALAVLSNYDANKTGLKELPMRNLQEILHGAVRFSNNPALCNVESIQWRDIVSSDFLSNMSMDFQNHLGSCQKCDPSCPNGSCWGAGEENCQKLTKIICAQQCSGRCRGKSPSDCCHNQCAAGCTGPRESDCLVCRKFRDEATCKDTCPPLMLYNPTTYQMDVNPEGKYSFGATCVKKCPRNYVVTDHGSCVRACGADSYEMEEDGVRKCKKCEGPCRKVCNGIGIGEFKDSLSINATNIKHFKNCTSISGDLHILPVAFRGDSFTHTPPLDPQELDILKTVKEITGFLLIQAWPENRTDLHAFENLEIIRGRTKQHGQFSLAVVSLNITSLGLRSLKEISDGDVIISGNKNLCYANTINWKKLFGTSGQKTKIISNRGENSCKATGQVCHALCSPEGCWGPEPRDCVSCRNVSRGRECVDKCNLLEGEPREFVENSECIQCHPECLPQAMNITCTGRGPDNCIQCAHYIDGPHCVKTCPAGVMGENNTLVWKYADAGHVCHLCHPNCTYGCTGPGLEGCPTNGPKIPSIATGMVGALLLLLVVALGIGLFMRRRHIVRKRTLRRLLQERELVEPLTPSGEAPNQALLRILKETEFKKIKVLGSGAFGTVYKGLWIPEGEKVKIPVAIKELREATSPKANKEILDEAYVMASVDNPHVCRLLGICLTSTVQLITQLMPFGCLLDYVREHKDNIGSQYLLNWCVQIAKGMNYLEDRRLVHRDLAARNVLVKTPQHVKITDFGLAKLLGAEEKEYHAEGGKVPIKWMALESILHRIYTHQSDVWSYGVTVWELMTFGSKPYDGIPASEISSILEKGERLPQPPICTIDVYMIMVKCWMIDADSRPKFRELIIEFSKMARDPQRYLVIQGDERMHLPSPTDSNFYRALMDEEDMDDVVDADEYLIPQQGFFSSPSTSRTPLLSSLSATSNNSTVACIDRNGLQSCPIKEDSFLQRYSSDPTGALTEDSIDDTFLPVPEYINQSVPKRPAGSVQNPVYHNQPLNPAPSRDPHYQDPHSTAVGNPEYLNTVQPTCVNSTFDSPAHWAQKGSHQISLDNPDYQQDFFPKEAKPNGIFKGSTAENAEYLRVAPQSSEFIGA

Cytochrome P450 2C9 = Cytochrome P450 2C9 (Homo sapiens, UniProt P11712); experiment: Inhibition of human CYP2C9; format: ADME
Chain of Cytochrome P450 2C9 (P11712 whole entry): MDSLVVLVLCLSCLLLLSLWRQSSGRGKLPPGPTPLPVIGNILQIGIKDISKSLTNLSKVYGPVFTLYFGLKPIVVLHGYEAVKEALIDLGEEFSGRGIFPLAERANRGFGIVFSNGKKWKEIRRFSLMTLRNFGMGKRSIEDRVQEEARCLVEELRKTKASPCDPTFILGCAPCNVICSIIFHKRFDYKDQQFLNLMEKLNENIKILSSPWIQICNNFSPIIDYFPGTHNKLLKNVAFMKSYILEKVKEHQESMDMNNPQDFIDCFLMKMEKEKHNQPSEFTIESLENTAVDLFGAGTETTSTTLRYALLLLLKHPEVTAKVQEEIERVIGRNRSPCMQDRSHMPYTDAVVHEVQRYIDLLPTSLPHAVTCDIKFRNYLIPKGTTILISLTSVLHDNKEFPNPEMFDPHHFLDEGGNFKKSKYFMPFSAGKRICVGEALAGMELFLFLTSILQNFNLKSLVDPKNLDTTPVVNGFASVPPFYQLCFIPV

Cytochrome P450 3A4 = Cytochrome P450 3A4 (Homo sapiens, UniProt P08684); experiment: Inhibition of human CYP3A4; format: ADME
Chain of Cytochrome P450 3A4 (P08684 whole entry): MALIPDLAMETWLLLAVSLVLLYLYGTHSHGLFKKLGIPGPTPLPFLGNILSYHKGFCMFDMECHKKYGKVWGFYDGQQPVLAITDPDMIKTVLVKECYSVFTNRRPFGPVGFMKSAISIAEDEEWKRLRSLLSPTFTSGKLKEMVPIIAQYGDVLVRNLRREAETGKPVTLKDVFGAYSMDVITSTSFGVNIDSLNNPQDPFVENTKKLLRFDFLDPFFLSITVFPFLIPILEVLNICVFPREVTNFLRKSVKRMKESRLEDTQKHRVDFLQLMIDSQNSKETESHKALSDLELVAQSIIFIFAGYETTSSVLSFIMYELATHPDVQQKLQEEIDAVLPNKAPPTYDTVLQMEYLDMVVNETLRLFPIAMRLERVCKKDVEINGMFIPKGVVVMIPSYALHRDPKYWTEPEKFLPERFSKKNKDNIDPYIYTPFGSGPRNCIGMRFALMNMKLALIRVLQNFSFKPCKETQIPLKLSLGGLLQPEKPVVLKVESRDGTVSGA

Cytochrome P450 2D6 = Cytochrome P450 2D6 (Homo sapiens, UniProt P10635); experiment: Inhibition of human CYP2D6; format: ADME
Chain of Cytochrome P450 2D6 (P10635 whole entry): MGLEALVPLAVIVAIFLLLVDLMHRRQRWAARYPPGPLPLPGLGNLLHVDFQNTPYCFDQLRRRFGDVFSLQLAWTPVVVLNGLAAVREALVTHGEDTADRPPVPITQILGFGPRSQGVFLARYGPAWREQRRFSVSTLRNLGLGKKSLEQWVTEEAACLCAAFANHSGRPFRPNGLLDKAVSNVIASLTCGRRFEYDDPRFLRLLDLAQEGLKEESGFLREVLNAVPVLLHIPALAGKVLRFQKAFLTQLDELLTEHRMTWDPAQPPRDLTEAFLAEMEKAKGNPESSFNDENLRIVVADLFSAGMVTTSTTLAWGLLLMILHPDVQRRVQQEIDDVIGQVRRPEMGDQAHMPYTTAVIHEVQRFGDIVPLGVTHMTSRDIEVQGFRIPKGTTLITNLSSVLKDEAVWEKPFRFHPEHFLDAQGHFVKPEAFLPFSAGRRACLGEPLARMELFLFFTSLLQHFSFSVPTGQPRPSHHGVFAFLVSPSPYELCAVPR

[17] = Elimination half life in Han Wistar rat at 2 mg/kg, po; format: ADME, organism-based; conditions: in vivo, read-out: beta t1/2 (converted)
[18] = target: Voltage-gated inwardly rectifying potassium channel KCNH2 (Homo sapiens, UniProt Q12809); experiment: Inhibition of human ERG by patch clamp assay
Chain of Voltage-gated inwardly rectifying potassium channel KCNH2 (Q12809 whole entry): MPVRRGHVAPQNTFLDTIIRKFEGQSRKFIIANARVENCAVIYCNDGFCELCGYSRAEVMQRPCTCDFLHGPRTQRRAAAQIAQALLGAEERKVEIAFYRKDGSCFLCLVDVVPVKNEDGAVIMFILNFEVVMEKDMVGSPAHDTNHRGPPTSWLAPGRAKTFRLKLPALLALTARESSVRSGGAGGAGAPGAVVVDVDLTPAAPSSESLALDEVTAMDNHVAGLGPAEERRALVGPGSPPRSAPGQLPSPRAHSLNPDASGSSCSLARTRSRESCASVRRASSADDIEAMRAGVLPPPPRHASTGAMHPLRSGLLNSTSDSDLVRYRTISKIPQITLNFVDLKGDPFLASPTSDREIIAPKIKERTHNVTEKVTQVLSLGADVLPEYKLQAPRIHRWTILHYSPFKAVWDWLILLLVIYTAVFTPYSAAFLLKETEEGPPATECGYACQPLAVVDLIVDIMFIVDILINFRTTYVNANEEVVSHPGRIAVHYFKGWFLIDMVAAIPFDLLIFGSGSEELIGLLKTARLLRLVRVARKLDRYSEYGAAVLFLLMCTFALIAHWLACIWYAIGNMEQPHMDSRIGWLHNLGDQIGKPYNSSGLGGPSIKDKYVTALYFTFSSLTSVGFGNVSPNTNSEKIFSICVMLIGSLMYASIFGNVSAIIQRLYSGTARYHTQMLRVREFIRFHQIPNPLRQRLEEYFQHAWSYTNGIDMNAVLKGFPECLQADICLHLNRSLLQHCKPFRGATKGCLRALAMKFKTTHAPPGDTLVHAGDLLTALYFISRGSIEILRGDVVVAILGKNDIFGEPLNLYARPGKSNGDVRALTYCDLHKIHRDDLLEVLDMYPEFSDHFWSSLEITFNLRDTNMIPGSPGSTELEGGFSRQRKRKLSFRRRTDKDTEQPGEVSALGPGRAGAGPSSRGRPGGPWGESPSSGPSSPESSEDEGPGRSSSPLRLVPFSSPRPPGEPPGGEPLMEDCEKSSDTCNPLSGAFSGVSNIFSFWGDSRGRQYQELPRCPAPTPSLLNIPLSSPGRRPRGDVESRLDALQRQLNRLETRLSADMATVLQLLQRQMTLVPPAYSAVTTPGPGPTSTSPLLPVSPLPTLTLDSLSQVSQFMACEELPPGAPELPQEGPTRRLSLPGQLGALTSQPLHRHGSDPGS

Rattus norvegicus = experiment: Volume of distribution at steady state in Han Wistar rat at 2 mg/kg, […]; format: ADME, organism-based; conditions: in vivo
[19] = Tmax in Han Wistar rat at 5 mg/kg, po; format: ADME, organism-based; conditions: in vivo
[20] = Oral bioavailability in Han Wistar rat at 5 mg/kg; format: ADME, organism-based; conditions: in vivo
[21] = Drug metabolism in rat hepatocytes assessed as piperazine oxidation; format: ADME, cell-based, Hepatocyte
[22] = Cmax in Han Wistar rat at 5 mg/kg, po; format: ADME, organism-based; design: dose 5 mg/kg, route oral; conditions: in vivo
[23] = AUC(0 to 24 hrs) in Han Wistar rat at 1 mg/kg, iv; format: ADME, organism-based; design: time < 24 hr, dose 1 mg/kg, route intravenous; conditions: in vivo
[24] = AUC(0 to 24 hrs) in Han Wistar rat at 5 mg/kg, po; format: ADME, organism-based; design: dose 5 mg/kg, time < 24 hr, route oral; conditions: in vivo
Cerebrospinal fluid = experiment: as §1; format: ADME, organism-based; design: time < 7 hr, dose 2 mg/kg, route oral; conditions: in vivo, 7 h, BLD = below limit of detection
BCRP [25] = experiment: in vitro; conditions: dog
Description: Efflux ratio of permeability from basolateral to apical side over apical to basolateral side in BCRP transfected MDCK2 cells

[26] = Ratio of unbound AUC (0 to 24 hrs) in CSF to blood of Han Wistar rat at 20 mg/kg, po by LC-MS/MS analysis; format: ADME, organism-based; conditions: CSF and blood
[27] = Ratio of unbound AUC (0 to 24 hrs) in brain to blood of Han Wistar rat at 20 mg/kg, po by LC-MS/MS analysis; format: ADME, organism-based; conditions: brain and blood, read-out: K(p,uu,brain)
BCRP [28] = experiment: Permeability from apical to basolateral side in BCRP transfected MDCK2 cells; format: ADME, cell-based, Canis lupus familiaris, MDCK-II; conditions: dog

| SMILES | fraction unbound at 5 µM [1] | half-life [2] [h] | efflux ratio (MDR1 (P-gp)) | Kp uu [3] | clearance [4] [mL/min/kg] | Kp uu [5] | IC50 [6] [nM] | fraction unbound at 5 µM [7] | bioavailability [9] [%] | Papp A→B [10] [×10⁻⁶ cm/s] | AUC(0-t) at 7 h [11] [µM·h] | Vd [12] [L/kg] | AUC(0-t) at 7 h [13] [µM·h] | AUC(0-t) at 7 h [14] [µM·h] | further results |
| --- | --- | --- | --- | --- | --- | --- | --- | --- | --- | --- | --- | --- | --- | --- | --- |
| COc1cc2ncnc(Nc3cccc(Cl)c3F)c2cc1OC(=O)N1CCN(C)[C@@H](C)C1 | 0.035 | 1.1 | 1.5 | 0.84 | 26 | 3.5 | 16.9 | 0.016 | 24 | 59 | 0.278 | 1.9 | 0.019 | 0.157 | AUC(0-t) at 24 h [8]: 0.789 µM·h |
| COc1cc2ncnc(Nc3cccc(Cl)c3F)c2cc1CN1CCOCC1 | 0.078 |  | 0.33 | 0.47 |  | 0.76 | 6.6 | 0.03 | 44 | 32 | 1.01 |  | 0.05 | 0.834 | CL/F [15]: 59 mL/min/kg; IC50 [16]: 3.8 nM; IC50 (Cytochrome P450 2C9): > 10000 nM; IC50 (Cytochrome P450 3A4): > 10000 nM; IC50 (Cytochrome P450 2D6): > 10000 nM; half-life [17]: 1.1 h; IC50 [18]: 17000 nM; Vdss (Rattus norvegicus): 2.8 L/kg |
| COc1cc2ncnc(Nc3cccc(Cl)c3F)c2cc1OC(=O)N1CCN(C)CC1 | 0.084 | 2.6 | 0.37 | 0.34 | 22 | 0.52 | 5 | 0.025 |  | 28 | 0.825 | 1.8 | 0.031 | 0.722 | Tmax [19]: 0.25 h; bioavailability [20]: 45%; Drug metabolism [21]: metabolite_detected; Cmax [22]: 2020 nM; AUC(0-t) at 24 h [23]: 1.71 µM·h; AUC(0-t) at 24 h [24]: 3.91 µM·h |
| COc1cc2ncnc(Nc3cccc(Cl)c3F)c2cc1OC(=O)N1C[C@@H]2C[C@H]1CN2C | 0.134 |  | 0.39 | 0.086 |  |  | 2.3 | 0.016 |  | 14 | 0.332 |  |  | 0.454 | K(p,uu,CSF) ([5]; csf, BLD = below limit of detection): BLD; AUC (Cerebrospinal fluid): BLD |
| COc1cc2ncnc(Nc3cccc(Cl)c3F)c2cc1C(=O)N1CCOCC1 | 0.17 |  | 2.9 | 0.03 |  | 0.16 | 166 | 0.088 |  | 28 | 0.101 |  | 0.046 | 1.63 |  |
| COc1cc2ncnc(Nc3cccc(Cl)c3F)c2cc1OC(=O)N1CC[C@@H](N(C)C)C1 | 0.058 |  | 0.76 | 0.27 |  | 0.43 | 1.1 | 0.023 |  | 47 | 2.04 |  | 0.075 | 3 |  |
| COc1cc2ncnc(Nc3cccc(Cl)c3F)c2cc1N1CCOCC1 | 0.058 |  | 0.29 | 0.96 |  | 0.93 | 1.5 | 0.022 |  | 32 | 0.085 |  | 0.002 | 0.033 |  |
| CN(C)C/C=C/C(=O)Nc1cc2c(Nc3ccc(F)c(Cl)c3)ncnc2cc1O[C@H]1CCOC1 [AFATINIB] | 0.041 |  | 11 |  |  |  |  | 0.0054 |  | 2.5 |  |  |  |  | efflux ratio (BCRP [25]): 59; Kp uu [26]: 0.27; Kp uu [27]: 0.0066; Papp A→B (BCRP [28]): 1.3 ×10⁻⁶ cm/s |
| COc1cc2ncnc(Nc3cccc(Cl)c3F)c2cc1OC(=O)N1CCN(C)[C@H](C)C1 | 0.064 | 1.3 | 0.94 | 0.28 | 55 | 0.28 | 21.5 | 0.018 | 92 | 54 | 0.417 | 3.2 | 0.007 | 0.404 | AUC(0-t) at 24 h [8]: 1.04 µM·h |
